Source: the NIST ThermoML archive (doi:10.1016/j.fluid.2014.12.023)
Where “and” joins values, the source holds several entries; their conditions need not be identical. Equal values may be shown once.

Conditions: Liquid, Transpiration method

Fc1ccccc1I [1,2-fluoroiodobenzene]
Conditions | vapor or sublimation pressure
282.8 K | 0.0397 kPa
285.7 K | 0.0483 kPa and 0.0493 kPa
288.7 K | 0.0638 kPa
289.5 K | 0.0686 kPa
292.5 K | 0.0843 kPa
296.4 K | 0.1111 kPa
298.4 K | 0.1269 kPa
301.4 K | 0.1633 kPa
303.4 K | 0.1819 kPa
306.4 K | 0.2238 kPa
308.4 K | 0.25 kPa
311.3 K | 0.2939 kPa
313.4 K | 0.3289 kPa
316.4 K | 0.4201 kPa
317.5 K | 0.4348 kPa
318.4 K | 0.4686 kPa
321.4 K | 0.5638 kPa
323.5 K | 0.6216 kPa
326.5 K | 0.7364 kPa
327.5 K | 0.7616 kPa
328.6 K | 0.8217 kPa

Fc1cccc(I)c1 [1,3-fluoroiodobenzene]
Conditions | vapor or sublimation pressure
275.2 K | 0.0326 kPa
280.4 K | 0.0474 kPa
283.4 K | 0.0571 kPa
283.8 K | 0.058 kPa
284.9 K | 0.0625 kPa
286.8 K | 0.0746 kPa
288.2 K | 0.082 kPa
288.7 K | 0.0861 kPa and 0.0802 kPa
290.7 K | 0.0986 kPa
292.6 K | 0.1122 kPa
293.2 K | 0.1154 kPa
293.6 K | 0.1137 kPa
296.7 K | 0.1436 kPa
297.6 K | 0.1513 kPa and 0.1481 kPa
300.6 K | 0.184 kPa
302.5 K | 0.2085 kPa
305.6 K | 0.256 kPa
307.5 K | 0.2849 kPa
307.6 K | 0.2932 kPa and 0.3026 kPa
310.6 K | 0.364 kPa and 0.3464 kPa
312.5 K | 0.4094 kPa and 0.3873 kPa
315.6 K | 0.4642 kPa
315.7 K | 0.4836 kPa
317.6 K | 0.516 kPa
317.7 K | 0.5427 kPa
319.6 K | 0.5968 kPa

Fc1ccc(I)cc1 [1,4-fluoroiodobenzene]
Conditions | vapor or sublimation pressure
276.5 K | 0.0329 kPa
279.7 K | 0.04219 kPa
283.9 K | 0.05918 kPa and 0.0586 kPa
286.5 K | 0.07144 kPa
289.4 K | 0.08532 kPa and 0.08615 kPa
293.3 K | 0.1163 kPa
298.1 K | 0.1638 kPa
303 K | 0.2198 kPa
308.1 K | 0.3015 kPa
312.9 K | 0.4121 kPa
317.9 K | 0.547 kPa

Fc1ccccc1Br [1-bromo-2-fluorobenzene]
Conditions | vapor or sublimation pressure [kPa]
278.5 K | 0.1247
279.4 K | 0.1385
280.6 K | 0.1422
282.3 K | 0.1684
282.5 K | 0.1604
283.4 K | 0.1716
284.5 K | 0.1843
285.5 K | 0.2081
288.7 K | 0.262
291.7 K | 0.3115
294.5 K | 0.3837
297.5 K | 0.4636
300.3 K | 0.5578
303.5 K | 0.6675
306.6 K | 0.8
309.5 K | 0.944
312.6 K | 1.141
315.4 K | 1.338
318.6 K | 1.61
321.4 K | 1.858
324.3 K | 2.174

Fc1cccc(Br)c1 [1-bromo-3-fluorobenzene]
Conditions | vapor or sublimation pressure [kPa]
280.8 K | 0.2278
283.4 K | 0.2912
283.7 K | 0.2875
284.7 K | 0.3109
286.6 K | 0.3559
287.7 K | 0.3711
288.7 K | 0.403
289.4 K | 0.4245
292.5 K | 0.5168
293.4 K | 0.5476
295.3 K | 0.6202
298.4 K | 0.7441
299.7 K | 0.8106
301.5 K | 0.8784
302.4 K | 0.9483
305.8 K | 1.125
308.5 K | 1.312
311.6 K | 1.541
314.6 K | 1.819
317.6 K | 2.138

Fc1ccc(Br)cc1 [1-bromo-4-fluorobenzene]
Conditions | vapor or sublimation pressure [kPa]
278.2 K | 0.1662
281.3 K | 0.2043
283.5 K | 0.2384
284.4 K | 0.2446
286.5 K | 0.285
287.3 K | 0.2956
289.4 K | 0.3532
290.2 K | 0.3668
292.4 K | 0.4087
295.4 K | 0.5144
296.1 K | 0.5283
298.3 K | 0.6028
300.1 K | 0.6822
301.4 K | 0.7138
304.4 K | 0.8461
307.6 K | 0.9874
310.5 K | 1.204
313.4 K | 1.41
316.4 K | 1.673

Fc1ccccc1Cl [1-chloro-2-fluorobenzene]
Conditions | vapor or sublimation pressure
277.5 K | 0.3411 kPa
280.6 K | 0.4191 kPa and 0.4312 kPa
283.5 K | 0.5098 kPa
283.6 K | 0.5041 kPa
286.4 K | 0.6241 kPa
286.6 K | 0.6176 kPa
289.5 K | 0.7705 kPa
289.6 K | 0.7749 kPa
292.4 K | 0.8974 kPa
295.7 K | 1.093 kPa
298.5 K | 1.268 kPa
301.3 K | 1.521 kPa
304.1 K | 1.795 kPa
307.4 K | 2.169 kPa
310.1 K | 2.497 kPa
313.6 K | 3.121 kPa
316.3 K | 3.551 kPa
319.2 K | 4.226 kPa

Fc1cccc(Cl)c1 [1-chloro-3-fluorobenzene]
Conditions | vapor or sublimation pressure [kPa]
275.8 K | 0.4412
280.1 K | 0.5829
283.1 K | 0.7061
286 K | 0.8315
288.9 K | 1.031
292 K | 1.237
295.1 K | 1.491
298.1 K | 1.767
301 K | 2.096
304.1 K | 2.469
307.3 K | 2.963
310.3 K | 3.568
313.3 K | 4.106
316.5 K | 4.927
319.5 K | 5.737

Fc1ccc(Cl)cc1 [1-chloro-4-fluorobenzene]
Conditions | vapor or sublimation pressure [kPa]
277.6 K | 0.6008
280.6 K | 0.7421
283.2 K | 0.8729
286.2 K | 1.057
289.3 K | 1.259
292.4 K | 1.527
295.7 K | 1.87
296.9 K | 1.982
299.8 K | 2.405
302.7 K | 2.858
305.7 K | 3.285
308.4 K | 3.855
311.6 K | 4.575
314.3 K | 5.275
317.6 K | 6.059
320.4 K | 7.146
323.5 K | 8.51
